From PubChem BioAssay AID1963832 (Molecular Pharmacology Branch, DTP, NCI, 2024)

System: 885724-159-R-J1-PDC complex spheroid viability
Assay: Anticancer human tumor 885724-159-R-J1-PDC patient-derived pancreatic adenocarcinoma cell line growth inhibition [POLQ]
Conditions: for IC50: curve of first compound; for viability, T/C: stronger effect = lower value
How it was run: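 Three-cell-type spheroids modelling solid tumor plus stroma served as the readout system; POL inhibitors were tested individually and in combination, concentration ranges set by clinical Cmax where known.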

[1] = second compound 0.0316 µM, first compound 0.00316 µM
[2] = second compound 0.0316 µM, first compound 0.01 µM
[3] = second compound 0.0316 µM, first compound 0.0316 µM
[4] = second compound 0.0316 µM, first compound 0.1 µM
[5] = second compound 0.0316 µM, first compound 0.316 µM
[6] = second compound 0.0316 µM, first compound 1 µM
[7] = second compound 0.1 µM, first compound 0.00316 µM
[8] = second compound 0.1 µM, first compound 0.01 µM
[9] = second compound 0.1 µM, first compound 0.0316 µM
[10] = second compound 0.1 µM, first compound 0.1 µM
[11] = second compound 0.1 µM, first compound 0.316 µM
[12] = second compound 0.1 µM, first compound 1 µM
[13] = second compound 0.316 µM, first compound 0.00316 µM
[14] = second compound 0.316 µM, first compound 0.01 µM
[15] = second compound 0.316 µM, first compound 0.0316 µM
[16] = second compound 0.316 µM, first compound 0.1 µM
[17] = second compound 0.316 µM, first compound 0.316 µM
[18] = second compound 0.316 µM, first compound 1 µM
[19] = second compound 1 µM, first compound 0.00316 µM
[20] = second compound 1 µM, first compound 0.01 µM
[21] = second compound 1 µM, first compound 0.0316 µM
[22] = second compound 1 µM, first compound 0.1 µM
[23] = second compound 1 µM, first compound 0.316 µM
[24] = second compound 1 µM, first compound 1 µM
[25] = second compound 3.16 µM, first compound 0.00316 µM
[26] = second compound 3.16 µM, first compound 0.01 µM
[27] = second compound 3.16 µM, first compound 0.0316 µM
[28] = second compound 3.16 µM, first compound 0.1 µM
[29] = second compound 3.16 µM, first compound 0.316 µM
[30] = second compound 3.16 µM, first compound 1 µM
[31] = second compound 10 µM, first compound 0.00316 µM
[32] = second compound 10 µM, first compound 0.01 µM
[33] = second compound 10 µM, first compound 0.0316 µM
[34] = second compound 10 µM, first compound 0.1 µM
[35] = second compound 10 µM, first compound 0.316 µM
[36] = second compound 10 µM, first compound 1 µM
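Further: spheroids exposed to compounds for 7 days.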

Which results are given for `C=CCn1c(=O)c2cnc(Nc3ccc(N4CCN(C)CC4)cc3)nc2n1-c1cccc(C(C)(C)O)n1` + Nc1ccc(C#CCN(C(=O)Cc2ncc(C(F)(F)F)cc2C(F)(F)F)c2ccc(F)cc2)nn1?
IC50 (second compound 0.0316 µM): 762 nM; IC50 (second compound 0.1 µM): 667 nM; IC50 (second compound 0.316 µM): 630 nM; IC50 (second compound 1 µM): > 1000 nM; IC50 (second compound 3.16 µM): 779 nM; IC50 (second compound 10 µM): 880 nM; viability, T/C [1]: 96.6%; viability, T/C [2]: 96%; viability, T/C [3]: 79.6%; viability, T/C [4]: 67.8%; viability, T/C [5]: 57.4%; viability, T/C [6]: 47.3%; viability, T/C [7]: 106%; viability, T/C [8]: 95.1%; viability, T/C [9]: 86.5%; viability, T/C [10]: 73.8%; viability, T/C [11]: 57.1%; viability, T/C [12]: 45.8%; viability, T/C [13]: 94.9%; viability, T/C [14]: 92.2%; viability, T/C [15]: 89.8%; viability, T/C [16]: 73.9%; viability, T/C [17]: 56.2%; viability, T/C [18]: 46%; viability, T/C [19]: 102%; viability, T/C [20]: 92.6%; viability, T/C [21]: 91.3%; viability, T/C [22]: 76%; viability, T/C [23]: 58.1%; viability, T/C [24]: 53.3%; viability, T/C [25]: 96.3%; viability, T/C [26]: 101%; viability, T/C [27]: 88.2%; viability, T/C [28]: 73.9%; viability, T/C [29]: 56%; viability, T/C [30]: 48.3%; viability, T/C [31]: 116%; viability, T/C [32]: 98.2%; viability, T/C [33]: 98.5%; viability, T/C [34]: 81.4%; viability, T/C [35]: 63.7%; viability, T/C [36]: 48.2%

Which results are given for `CC[C@@]1(O)C(=O)OCc2c1cc1n(c2=O)Cc2cc3c(CN(C)C)c(O)ccc3nc2-1` + Nc1ccc(C#CCN(C(=O)Cc2ncc(C(F)(F)F)cc2C(F)(F)F)c2ccc(F)cc2)nn1?
IC50 (second compound 0.0316 µM): > 100 nM; IC50 (second compound 0.1 µM): > 100 nM; IC50 (second compound 0.316 µM): > 100 nM; IC50 (second compound 1 µM): > 100 nM; IC50 (second compound 3.16 µM): > 100 nM; IC50 (second compound 10 µM): > 100 nM; viability, T/C (second compound 0.0316 µM, first compound 0.000316 µM): 91.3%; viability, T/C (second compound 0.0316 µM, first compound 0.001 µM): 89.7%; viability, T/C [1]: 94.6%; viability, T/C [2]: 83.6%; viability, T/C [3]: 77.8%; viability, T/C [4]: 63.3%; viability, T/C (second compound 0.1 µM, first compound 0.000316 µM): 108%; viability, T/C (second compound 0.1 µM, first compound 0.001 µM): 93%; viability, T/C [7]: 89.4%; viability, T/C [8]: 82%; viability, T/C [9]: 72.2%; viability, T/C [10]: 63%; viability, T/C (second compound 0.316 µM, first compound 0.000316 µM): 96.7%; viability, T/C (second compound 0.316 µM, first compound 0.001 µM): 101%; viability, T/C [13]: 93%; viability, T/C [14]: 94.2%; viability, T/C [15]: 77%; viability, T/C [16]: 58.9%; viability, T/C (second compound 1 µM, first compound 0.000316 µM): 100%; viability, T/C (second compound 1 µM, first compound 0.001 µM): 91.7%; viability, T/C [19]: 85.2%; viability, T/C [20]: 85.3%; viability, T/C [21]: 84.3%; viability, T/C [22]: 54.7%; viability, T/C (second compound 3.16 µM, first compound 0.000316 µM): 98%; viability, T/C (second compound 3.16 µM, first compound 0.001 µM): 102%; viability, T/C [25]: 98.5%; viability, T/C [26]: 83.2%; viability, T/C [27]: 85.1%; viability, T/C [28]: 59%; viability, T/C (second compound 10 µM, first compound 0.000316 µM): 98.5%; viability, T/C (second compound 10 µM, first compound 0.001 µM): 87.2%; viability, T/C [31]: 98.8%; viability, T/C [32]: 98.8%; viability, T/C [33]: 81.1%; viability, T/C [34]: 63%

How did the IC50 (second compound 0.0316 µM) turn out when `CNCc1ccc(-c2[nH]c3cc(F)cc4c3c2CCNC4=O)cc1` + Nc1ccc(C#CCN(C(=O)Cc2ncc(C(F)(F)F)cc2C(F)(F)F)c2ccc(F)cc2)nn1 was run?
Its IC50 is over 10000 nM.

And the IC50 (second compound 0.1 µM)?
Its IC50 is over 10000 nM.

And the IC50 (second compound 0.316 µM)?
The IC50 was over 10000 nM.

What about the IC50 (second compound 1 µM) of the same compound?
Its IC50 is over 10000 nM.

What about the IC50 (second compound 3.16 µM) of the same compound?
Its IC50 is over 10000 nM.

And the IC50 (second compound 10 µM)?
Its IC50 is over 10000 nM.

And the viability, T/C [3]?
Its viability, T/C is 89%.

And the viability, T/C [4]?
The viability, T/C was 93%.

And the viability, T/C [5]?
The viability, T/C was 87.5%.

And the viability, T/C [6]?
Its viability, T/C is 91%.

What about the viability, T/C (second compound 0.0316 µM, first compound 3.16 µM) of the same compound?
The viability, T/C was 92.3%.

And the viability, T/C (second compound 0.0316 µM, first compound 10 µM)?
Its viability, T/C is 91.1%.

And the viability, T/C [9]?
The viability, T/C was 101%.

What about the viability, T/C [10] of the same compound?
The viability, T/C was 88.3%.

What about the viability, T/C [11] of the same compound?
Its viability, T/C is 92.5%.

What about the viability, T/C [12] of the same compound?
Its viability, T/C is 94.2%.

And the viability, T/C (second compound 0.1 µM, first compound 3.16 µM)?
The viability, T/C was 89.9%.

And the viability, T/C (second compound 0.1 µM, first compound 10 µM)?
Its viability, T/C is 85.6%.

And the viability, T/C [15]?
The viability, T/C was 95.5%.

What about the viability, T/C [16] of the same compound?
The viability, T/C was 81.1%.

And the viability, T/C [17]?
Its viability, T/C is 85.9%.

And the viability, T/C [18]?
Its viability, T/C is 89.8%.

And the viability, T/C (second compound 0.316 µM, first compound 3.16 µM)?
Its viability, T/C is 96.5%.

What about the viability, T/C (second compound 0.316 µM, first compound 10 µM) of the same compound?
The viability, T/C was 92.7%.

What about the viability, T/C [21] of the same compound?
The viability, T/C was 88.7%.

And the viability, T/C [22]?
The viability, T/C was 101%.

What about the viability, T/C [23] of the same compound?
Its viability, T/C is 89.7%.

What about the viability, T/C [24] of the same compound?
Its viability, T/C is 85.7%.

What about the viability, T/C (second compound 1 µM, first compound 3.16 µM) of the same compound?
Its viability, T/C is 88.7%.

What about the viability, T/C (second compound 1 µM, first compound 10 µM) of the same compound?
The viability, T/C was 83.4%.

And the viability, T/C [27]?
The viability, T/C was 100%.

And the viability, T/C [28]?
Its viability, T/C is 96.8%.

What about the viability, T/C [29] of the same compound?
The viability, T/C was 96.6%.

What about the viability, T/C [30] of the same compound?
Its viability, T/C is 88.6%.

What about the viability, T/C (second compound 3.16 µM, first compound 3.16 µM) of the same compound?
The viability, T/C was 98.3%.

And the viability, T/C (second compound 3.16 µM, first compound 10 µM)?
Its viability, T/C is 81.9%.

And the viability, T/C [33]?
The viability, T/C was 92%.

And the viability, T/C [34]?
Its viability, T/C is 92.2%.

What about the viability, T/C [35] of the same compound?
The viability, T/C was 98.8%.

What about the viability, T/C [36] of the same compound?
The viability, T/C was 91.5%.

What about the viability, T/C (second compound 10 µM, first compound 3.16 µM) of the same compound?
The viability, T/C was 92.2%.

And the viability, T/C (second compound 10 µM, first compound 10 µM)?
Its viability, T/C is 91.7%.
